Measured values as given in patent US20240293400A1, “NOVEL AZAINDOLE DERIVATIVES AS ANTIVIRAL AGENTS” (Centre National de la Recherche Scientifique, priority 2021, published 2024).

Columns and labels:
Axl = Axl (Homo sapiens (Human), UniProt P30530); test: Kinase panel Z'-LYTE/Adapta SelectScreen and IC50 determination; assay type: biochemical; conditions: for Percentage inhibition AXL: 100 nM in 1% DMSO; for IC50: 10 concentrations between 100 nM and 0.00495 nM
Protocol: FIG. 2: […] The compounds are screened in DMSO at 1% final. The kinases were diluted in a concentrated concentration twice in kinase buffer. All the ATP solutions were diluted in a 4-fold concentrated working concentration (50 mM HEPES pH 7.5, 0.01% BRIJ-35, 10 mM MgCl2, 1 mM EGTA). […] The inhibitory activity of the compounds on a panel of kinases including, inter alia, AXL and FLT3 was evaluated by Thermo Fisher Scientific using Z′-LYTE® and Adapta® Select Screen technology. The fluorescence-based biochemical test uses coupled enzymes and is based on the difference in sensitivity of the phosphorylated and non-phosphorylated peptides to proteolytic cleavage. The peptide substrate is labeled with 2 fluorophores—one at each end—allowing fluorescence transfer (FRET). […] The Axl or FLT3 kinases were diluted at a two-fold concentration in kinase buffer. All the ATP solutions are diluted in a 4-fold working concentration (50 mM HEPES PH 7.5, 0.01% BRIJ-35, 10 mM MgCl2, 1 mM EGTA).

AURKA (Aurora A) = AURKA (Aurora A) (Homo sapiens (Human), UniProt O14965); test: Kinase panel Z'-LYTE/Adapta SelectScreen; assay type: biochemical; conditions: 100 nM in 1% DMSO
AURKA (Aurora A), sequence (O14965 whole entry): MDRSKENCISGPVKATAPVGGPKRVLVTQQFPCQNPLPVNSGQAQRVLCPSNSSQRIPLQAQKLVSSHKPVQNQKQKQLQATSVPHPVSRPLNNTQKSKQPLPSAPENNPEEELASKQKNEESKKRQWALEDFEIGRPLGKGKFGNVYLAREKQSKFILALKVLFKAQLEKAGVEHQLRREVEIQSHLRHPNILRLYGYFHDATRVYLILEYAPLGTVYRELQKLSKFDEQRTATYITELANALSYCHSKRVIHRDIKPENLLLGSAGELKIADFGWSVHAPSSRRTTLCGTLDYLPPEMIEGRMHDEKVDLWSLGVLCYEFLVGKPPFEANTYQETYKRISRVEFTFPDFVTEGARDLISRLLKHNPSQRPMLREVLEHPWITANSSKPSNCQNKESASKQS
Protocol: (§1) The inhibitory activity of the compounds on a panel of kinases including, inter alia, AXL and FLT3 was evaluated by Thermo Fisher Scientific using Z′-LYTE® and Adapta® Select Screen technology.
(§2) The fluorescence-based biochemical test uses coupled enzymes and is based on the difference in sensitivity of the phosphorylated and non-phosphorylated peptides to proteolytic cleavage. The peptide substrate is labeled with 2 fluorophores—one at each end—allowing fluorescence transfer (FRET).
(§3) Compounds 1, 2 and 3 are tested in wells at the final concentration of 100 nM in 1% DMSO.

MERTK (cMER) = MERTK (cMER) (Homo sapiens (Human), UniProt Q12866); test: Kinase panel Z'-LYTE/Adapta SelectScreen; assay type: biochemical; conditions: 100 nM in 1% DMSO
MERTK (cMER), sequence (Q12866 21-999): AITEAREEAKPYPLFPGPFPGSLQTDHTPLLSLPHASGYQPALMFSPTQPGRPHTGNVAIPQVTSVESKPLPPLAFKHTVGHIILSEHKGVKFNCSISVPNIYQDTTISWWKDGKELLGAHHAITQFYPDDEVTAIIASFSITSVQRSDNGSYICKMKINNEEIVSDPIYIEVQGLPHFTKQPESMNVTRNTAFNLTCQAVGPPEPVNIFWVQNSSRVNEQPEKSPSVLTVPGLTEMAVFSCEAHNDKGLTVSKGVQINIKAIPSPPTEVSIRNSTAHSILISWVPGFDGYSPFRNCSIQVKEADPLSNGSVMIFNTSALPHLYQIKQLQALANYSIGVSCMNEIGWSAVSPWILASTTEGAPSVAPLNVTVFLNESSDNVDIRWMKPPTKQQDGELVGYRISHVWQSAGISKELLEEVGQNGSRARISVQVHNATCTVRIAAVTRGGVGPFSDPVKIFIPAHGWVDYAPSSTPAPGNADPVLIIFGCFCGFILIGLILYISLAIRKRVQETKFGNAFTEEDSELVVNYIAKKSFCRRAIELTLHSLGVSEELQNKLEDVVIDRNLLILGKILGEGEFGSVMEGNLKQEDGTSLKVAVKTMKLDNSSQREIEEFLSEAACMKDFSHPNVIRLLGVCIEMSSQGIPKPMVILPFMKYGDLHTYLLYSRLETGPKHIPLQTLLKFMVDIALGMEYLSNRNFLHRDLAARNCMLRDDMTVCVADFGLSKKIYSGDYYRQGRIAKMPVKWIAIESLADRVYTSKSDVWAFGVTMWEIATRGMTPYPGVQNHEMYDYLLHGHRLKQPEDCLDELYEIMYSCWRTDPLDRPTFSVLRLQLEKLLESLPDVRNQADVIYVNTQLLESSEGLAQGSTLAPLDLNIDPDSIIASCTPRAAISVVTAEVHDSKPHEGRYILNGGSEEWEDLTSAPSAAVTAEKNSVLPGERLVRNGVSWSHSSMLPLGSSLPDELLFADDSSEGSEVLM
Protocol: as §1, §2, §3

PDGFRB (PDGFR beta) = PDGFRB (PDGFR beta) (Homo sapiens (Human), UniProt P09619); test: Kinase panel Z'-LYTE/Adapta SelectScreen; assay type: biochemical; conditions: 100 nM in 1% DMSO
PDGFRB (PDGFR beta), sequence (P09619 33-1106): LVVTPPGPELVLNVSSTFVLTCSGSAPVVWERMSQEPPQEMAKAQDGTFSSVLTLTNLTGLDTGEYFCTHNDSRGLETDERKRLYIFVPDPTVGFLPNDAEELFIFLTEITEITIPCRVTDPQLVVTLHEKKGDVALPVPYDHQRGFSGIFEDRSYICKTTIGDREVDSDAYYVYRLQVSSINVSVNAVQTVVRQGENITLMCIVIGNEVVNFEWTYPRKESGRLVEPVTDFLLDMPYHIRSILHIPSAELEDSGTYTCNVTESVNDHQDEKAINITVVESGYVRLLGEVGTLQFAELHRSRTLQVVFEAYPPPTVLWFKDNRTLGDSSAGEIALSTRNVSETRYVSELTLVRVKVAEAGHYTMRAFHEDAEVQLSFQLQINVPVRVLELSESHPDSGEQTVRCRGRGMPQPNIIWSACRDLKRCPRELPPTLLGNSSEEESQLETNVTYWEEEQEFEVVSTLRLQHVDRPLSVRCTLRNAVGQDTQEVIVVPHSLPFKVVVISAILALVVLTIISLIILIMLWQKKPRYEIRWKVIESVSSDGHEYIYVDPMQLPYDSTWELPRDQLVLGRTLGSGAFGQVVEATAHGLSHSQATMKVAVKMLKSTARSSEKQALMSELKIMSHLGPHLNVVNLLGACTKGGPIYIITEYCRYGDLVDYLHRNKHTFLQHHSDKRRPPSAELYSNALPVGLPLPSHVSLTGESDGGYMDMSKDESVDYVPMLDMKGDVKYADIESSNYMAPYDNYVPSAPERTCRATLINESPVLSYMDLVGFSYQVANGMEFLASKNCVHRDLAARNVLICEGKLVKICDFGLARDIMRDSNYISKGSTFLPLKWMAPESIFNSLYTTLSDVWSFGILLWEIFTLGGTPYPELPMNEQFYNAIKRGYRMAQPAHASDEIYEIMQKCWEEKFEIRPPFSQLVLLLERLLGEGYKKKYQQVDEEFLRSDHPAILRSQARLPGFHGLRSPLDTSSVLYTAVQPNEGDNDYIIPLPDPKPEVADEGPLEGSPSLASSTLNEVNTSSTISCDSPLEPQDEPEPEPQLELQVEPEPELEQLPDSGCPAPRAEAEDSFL
Protocol: as §1, §2, §3

TYK2 = TYK2 (Homo sapiens (Human), UniProt P29597); test: Kinase panel Z'-LYTE/Adapta SelectScreen; assay type: biochemical; conditions: 100 nM in 1% DMSO
Protocol: as §1, §2, §3

TYRO3 (RSE) = TYRO3 (RSE) (Homo sapiens (Human), UniProt Q06418); test: Kinase panel Z'-LYTE/Adapta SelectScreen; assay type: biochemical; conditions: 100 nM in 1% DMSO
Protocol: as §1, §2, §3

FLT3 = FLT3 (Homo sapiens (Human), UniProt P36888); test: IC50 determination on kinase FLT3 (SelectScreen); assay type: biochemical; conditions: 10 concentrations between 100 nM and 0.00495 nM
FLT3, sequence (P36888 27-993): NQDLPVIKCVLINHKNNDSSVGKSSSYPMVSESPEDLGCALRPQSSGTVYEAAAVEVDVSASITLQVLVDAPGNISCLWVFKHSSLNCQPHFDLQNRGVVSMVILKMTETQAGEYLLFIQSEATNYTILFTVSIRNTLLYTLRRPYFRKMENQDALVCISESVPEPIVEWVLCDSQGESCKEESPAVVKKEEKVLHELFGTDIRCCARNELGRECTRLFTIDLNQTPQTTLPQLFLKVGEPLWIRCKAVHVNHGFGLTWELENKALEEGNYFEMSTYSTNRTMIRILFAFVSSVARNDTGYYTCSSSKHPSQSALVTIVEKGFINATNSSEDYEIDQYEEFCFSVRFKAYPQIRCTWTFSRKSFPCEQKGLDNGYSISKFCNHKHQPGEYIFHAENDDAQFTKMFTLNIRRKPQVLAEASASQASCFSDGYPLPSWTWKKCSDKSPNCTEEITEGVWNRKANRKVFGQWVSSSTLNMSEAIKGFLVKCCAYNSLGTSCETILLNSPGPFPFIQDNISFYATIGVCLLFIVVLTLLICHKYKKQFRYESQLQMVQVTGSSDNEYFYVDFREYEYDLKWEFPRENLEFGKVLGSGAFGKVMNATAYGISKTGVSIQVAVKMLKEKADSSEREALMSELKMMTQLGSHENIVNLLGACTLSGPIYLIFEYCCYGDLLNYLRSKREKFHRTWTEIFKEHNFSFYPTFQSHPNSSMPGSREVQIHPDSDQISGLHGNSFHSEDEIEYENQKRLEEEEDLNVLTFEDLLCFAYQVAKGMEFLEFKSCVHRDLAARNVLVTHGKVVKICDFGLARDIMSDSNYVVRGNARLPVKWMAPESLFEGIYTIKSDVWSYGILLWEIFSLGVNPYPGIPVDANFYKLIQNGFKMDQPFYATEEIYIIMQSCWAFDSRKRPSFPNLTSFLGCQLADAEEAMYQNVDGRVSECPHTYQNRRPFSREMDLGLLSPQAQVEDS
Protocol: FIG. 2: Determination of the IC50 of compounds 1, 2 and 3 with respect to the inhibition of the kinase Axl and of the kinase FLT3. 10 concentrations of the compound were prepared by serial dilutions. The compounds are screened in DMSO at 1% final. The kinases were diluted in a concentrated concentration twice in kinase buffer. All the ATP solutions were diluted in a 4-fold concentrated working concentration (50 mM HEPES pH 7.5, 0.01% BRIJ-35, 10 mM MgCl2, 1 mM EGTA). Each compound was incubated at 10 concentrations between 100 nM and 0.00495 nM in order to calculate the IC50. The IC50 are indicated: a) results of compound 1; b) results of compound 2; c) results of compound 3.
as §1, §2
To calculate the IC50 inhibition of Axl and FLT3 by the compounds of the invention, 10 concentrations of each compound 1, 2 and 3 were prepared by 1/3 serial dilutions from the starting concentration. The Axl or FLT3 kinases were diluted at a two-fold concentration in kinase buffer. All the ATP solutions are diluted in a 4-fold working concentration (50 mM HEPES PH 7.5, 0.01% BRIJ-35, 10 mM MgCl2, 1 mM EGTA).
Each compound is incubated at 10 concentrations between 100 nM and 0.00495 nM in order to calculate the IC50.

ZIKV BeH8 strain = test: Antiviral activity against the Zika virus in HeLa cells; assay type: cell-based; conditions: for concentration at which infection of the Hela cells by the strain ZIKV BeH-8 is prevented: 24 h, qRT-PCR; for concentration at which infection of the Hela cells by the strain ZIKV BeH-8 is prevented / IC50: HeLa cells; for IC50: BeH-8 strain, MOI=0.1, 24 h; for active on infectious model ZIKV: summary table
[1] = tested on: SARS-COV-2 virus, BetaCoV/France/IDF0371/2020; test: Anti-SARS-COV-2 activity in VeroE6 cells; assay type: cell-based; conditions: MOI=0.01, 24 hours, qRT-PCR; for infection of the VeroE6 cells by the SARS-COV-2 virus: 1.25 μM; for IC50: Vero E6 cells
Protocol: FIG. 7: Anti-SARS-COV-2 activity of compounds 1, 2, 3, 10 and 14 determined in the VeroE6 line. The cells were preincubated for 1 hour with compounds at a concentration of 1.25 μM, then infected with the viral strain BetaCoV/France/IDF0371/2020 (MOI=0.01). The cells were kept in culture for 24 hours in the presence of the compound. The residual viral replication is measured by quantification of the viral RNA in the cell culture by qRT-PCR. The control condition is obtained by incubation of cells in the presence of the dilution solvent DMSO (0). The values are averages of triplicates+standard deviation.
(§4) The inhibitory activity of the compounds of the invention on the infection by SARS-COV-2 was evaluated in vitro by infection of three relevant lines for the study of this pathogen: the green monkey line VeroE6 (immortalized kidney epithelium, ATCC #CRL-1586), the A549-ACE2 line produced by transfection of the ACE2 receptor in the A549 line (pulmonary epithelial carcinoma; ATCC #CCL-185), commercial primary bronchial epithelium cells (Mucilair Epithelix).
(§5) The infection tests are carried out by preincubating 4×10^4 VeroE6 or A549-ACE2 cells, cultivated in a 96-well plate, with the indicated concentrations of compounds for 1 hour. The cells are cultivated in a 5% CO2 atmosphere in a Dulbecco's modified Eagle's medium (DMEM) comprising 2% calf serum and 1% penicillin/streptomycin. The cells were then exposed to the SARS-COV-2 virus, BetaCoV/France/IDF0371/2020 (MOI=0.01) for 2 hours in the presence of the compounds before elimination of the innoculum, washing and culturing the cells in the presence of the compounds. 24 h after the viral challenge, the infection is quantified by amplification of the viral RNA by qRT-PCR using the Luna Universal One-Step RT-PCR kit. The values (DCT) are normalized by the GAPDH mRNA. The values represented are averages of triplicates+standard deviation. The control conditions were carried out by incubating the cells in the presence of DMSO, the solvent used for the solubilization of the compounds tested. The volumes of DMSO used under these conditions correspond to the volumes provided by the compounds under the test conditions.
IC50 compounds 1, 2 and 3 were determined on the VeroE6 and A549-ACE2 cells using the software Graphpad Prism.

SARS-COV-2 = test: Summary of activity on the SARS-COV-2 infectious models; assay type: cell-based; conditions: summary table
Protocol: as §4, §5

Axl, sequence (P30530 26-894): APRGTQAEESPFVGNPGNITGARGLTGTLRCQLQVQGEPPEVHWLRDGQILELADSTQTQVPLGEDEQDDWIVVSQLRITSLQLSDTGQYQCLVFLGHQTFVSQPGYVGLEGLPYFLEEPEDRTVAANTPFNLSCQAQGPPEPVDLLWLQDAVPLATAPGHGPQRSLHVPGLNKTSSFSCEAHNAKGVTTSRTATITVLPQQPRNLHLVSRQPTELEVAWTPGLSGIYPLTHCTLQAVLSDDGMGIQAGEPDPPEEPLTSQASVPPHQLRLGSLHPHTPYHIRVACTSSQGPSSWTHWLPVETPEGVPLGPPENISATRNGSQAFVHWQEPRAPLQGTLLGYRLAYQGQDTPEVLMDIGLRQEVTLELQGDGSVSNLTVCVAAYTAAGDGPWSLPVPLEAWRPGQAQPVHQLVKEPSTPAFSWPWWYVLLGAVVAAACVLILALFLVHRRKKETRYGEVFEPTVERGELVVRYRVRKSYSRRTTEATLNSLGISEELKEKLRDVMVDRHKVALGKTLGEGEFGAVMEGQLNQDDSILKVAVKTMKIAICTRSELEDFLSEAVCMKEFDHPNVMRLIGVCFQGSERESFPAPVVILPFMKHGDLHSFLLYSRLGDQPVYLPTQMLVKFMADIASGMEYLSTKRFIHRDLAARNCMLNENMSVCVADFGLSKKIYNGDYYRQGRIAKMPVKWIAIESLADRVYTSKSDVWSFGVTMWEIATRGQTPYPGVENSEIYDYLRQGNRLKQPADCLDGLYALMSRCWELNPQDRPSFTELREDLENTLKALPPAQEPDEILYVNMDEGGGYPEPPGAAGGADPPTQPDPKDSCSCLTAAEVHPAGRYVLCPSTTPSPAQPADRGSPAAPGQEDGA

Compound	Percentage inhibition AXL (Axl) [%]	IC50 (Axl) [nM]	selectivity with respect to Axl relative to FLT3 (Axl; from IC50 Axl and IC50 FLT3)	Percentage inhibition AURKA (Aurora A) (AURKA (Aurora A)) [%]	Percentage inhibition MERTK (cMER) (MERTK (cMER)) [%]	Percentage inhibition PDGFRB (PDGFR beta) (PDGFRB (PDGFR beta)) [%]	Percentage inhibition TYK2 (TYK2) [%]	Percentage inhibition TYRO3 (RSE) (TYRO3 (RSE)) [%]	IC50 (FLT3) [nM]	concentration at which infection of the Hela cells by the strain ZIKV BeH-8 is prevented (ZIKV BeH8 strain)	infection of the VeroE6 cells by the SARS-COV-2 virus [1]	active on infectious model SARS-COV-2 (SARS-COV-2)	IC50 (ZIKV BeH8 strain) [nM]	active on infectious model ZIKV (ZIKV BeH8 strain)	IC50 [1] [nM]
CN1CCN(Cc2cccc(-c3cnc4[nH]cc(-c5cc(NC(=O)Nc6ccccc6)ccc5F)c4c3)c2)CC1 [Compound 3]	94	6.3	shows a selectivity with respect to Axl relative to FLT3	14	75	19	7	19	48.2	greater than or equal to 150 nM	prevent the infection	ACTIVE			
CN1CCN(Cc2cccc(-c3cnc4[nH]cc(-c5cc(CNCc6ccccc6)ccc5F)c4c3)c2)CC1 [Compound 2]	95	2.36		11	96	30	5	67	2.33	greater than or equal to 150 nM	prevent the infection	ACTIVE	25	ACTIVE	289
CN1CCN(Cc2cccc(-c3cnc4[nH]cc(-c5cc(CNCCc6ccc(O)cc6)ccc5F)c4c3)c2)CC1 [Compound 1]	95	5.36		14	98	37	5	51	2.5	greater than or equal to 150 nM	prevent the infection	ACTIVE	198	ACTIVE	77
